Measurements: article PMC10412832 (Computational and Structural Biotechnology Journal, 2023)
Where two headings read alike, the source gives them in different places. Ends that are not written are not given here.

Assays:
[1] = target: recombinant SARS-CoV-2 M^pro (Severe acute respiratory syndrome coronavirus 2, UniProt P0DTD1)
[2] = ref [44]; cited from earlier work
[3] = ref [46]; cited from earlier work
SARS-CoV-2 = conditions: cited from earlier work

Protegrin 2: cysteine rich potent antimicrobial peptide originally isolated from pigs; two cysteine-cysteine disulfide bridges; PDB ID 2MUH
M^pro proteolytic cleavage activity [1]: inhibits the proteolytic cleavage activity of M^pro | Antimicrobial activity [2]: potent | Toxicity [3]: low toxicity

Protegrin 1: Source: Sus scrofa (RGGRLCYCRRRFCVCVGR; ends and bridges not checked; cysteine pairing not given here; UniProt P32194 131-148, looked up)
Effect against viruses / SARS-CoV-2 (SARS-CoV-2; ref [36]): effective against viruses and a few against SARS-CoV-2

LL-37: Source: Homo sapiens (LLGDFFRKSKEKIGKEFKRIVQRIKDFLRNLVPRTES; Antibacterial peptide LL-37; UniProt P49913 134-170, looked up)
Effect against viruses / SARS-CoV-2 (SARS-CoV-2; ref [36]): effective against viruses and a few against SARS-CoV-2

beta-defensin 1: naturally occurring antimicrobial peptide (DHYNCVSSGGQCLYSACPIFTKIQGTCYRGKAKCCK; ends and bridges not checked; cysteine pairing not given here; UniProt P60022 33-68, looked up)
Effect against viruses / SARS-CoV-2 (SARS-CoV-2; ref [36]): effective against viruses and a few against SARS-CoV-2

B1: human defensin 5: Source: Homo sapiens (peptide, UniProt Q01523 20-94, looked up)
Defensin alpha 5: ESLQERADEATTQKQSGEDNQDLAISFAGNGLSALRTSGSQARATCYCRTGRCATRESLSGVCEISGRLYRLCCR
modifications: Defensin-5
Effect against viruses / SARS-CoV-2 (SARS-CoV-2; ref [38], [39]): effective against viruses and a few against SARS-CoV-2
